Among the data in ChEMBL document CHEMBL1149960, “Synthesis, insecticidal and anti-acetylcholinesterase activity of a new class of heterocyclic methanesulfonates” (Bioorg Med Chem Lett, 1996) are LC50, IC50 and LD50 values, retold here.

Converted amounts (≈) assume the structure as drawn.

Test [1] deals with Diabrotica undecimpunctata. Put plainly: whole plant or invertebrate. The following applies: in Zea mays, read-out: LD50.
Description: Insecticidal activity against southern Corn rootworm (SCRW)
Test [2] has as its target T1, Acetylcholinesterase (Bos taurus, UniProt P23795).
T1 sequence (P23795 whole entry): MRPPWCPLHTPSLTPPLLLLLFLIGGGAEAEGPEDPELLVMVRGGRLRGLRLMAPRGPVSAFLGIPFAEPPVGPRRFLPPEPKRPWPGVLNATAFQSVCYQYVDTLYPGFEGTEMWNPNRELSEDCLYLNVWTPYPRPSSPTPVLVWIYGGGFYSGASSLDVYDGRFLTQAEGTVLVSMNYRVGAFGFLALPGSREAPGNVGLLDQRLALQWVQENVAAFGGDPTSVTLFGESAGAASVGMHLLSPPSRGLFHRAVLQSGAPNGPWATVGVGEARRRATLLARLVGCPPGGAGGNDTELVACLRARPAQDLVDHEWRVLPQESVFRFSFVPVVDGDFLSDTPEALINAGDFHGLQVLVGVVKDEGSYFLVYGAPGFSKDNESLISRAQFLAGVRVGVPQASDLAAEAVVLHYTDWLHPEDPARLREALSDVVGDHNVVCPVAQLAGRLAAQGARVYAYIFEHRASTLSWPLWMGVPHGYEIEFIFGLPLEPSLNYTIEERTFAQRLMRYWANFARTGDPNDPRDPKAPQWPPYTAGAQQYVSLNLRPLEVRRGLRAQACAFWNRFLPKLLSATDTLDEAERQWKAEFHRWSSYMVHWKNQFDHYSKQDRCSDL
Description: Inhibition of bovine erythrocyte acetylcholinesterase (AChE)

Test [3] concerns Lucilia cuprina. The experiment in a line: whole plant or invertebrate.
Description: Insecticidal activity against blowfly Lucilia cuprina

For orientation: IC50 means the concentration at which inhibition is half-maximal. Low values mean greater potency, high ones weaker potency. As usually defined, the LD50 is the dose expected to kill half of the subjects tested. A low value points to greater toxicity. Take `CC1(C)CC(OS(C)(=O)=O)=NN1C(=O)Nc1ccccc1`: the LC50 in test [1] was over 1000 µg/mL. Moreover, the IC50 in test [2] is over 1000 µM. The molecule further had an LD50 in test [3] of over 100 mg/kg.

`CC(C)CS(=O)(=O)c1cccc(OS(C)(=O)=O)n1`: the LC50 in test [1] was under 0.5 µg/mL. Half-maximal inhibition in test [2] (IC50) required 60.5 µM. In addition, the LD50 in test [3] is over 100 mg/kg.

For the molecule `CC(C)NC(=O)N1N=C(OS(C)(=O)=O)CC1C` (stereo unspecified), the LC50 in test [1] was under 0.5 µg/mL. This molecule came in with an IC50 in test [2] of 28.6 µM. Also, in test [3], the LD50 was determined as 21 mg/kg.

On to `CC1(C)CC(OS(C)(=O)=O)=NN1C(=O)NC1CCCCC1`, for which the LC50 in test [1] is over 1000 µg/mL. Further, half-maximal inhibition in test [2] (IC50) required 284 µM. Besides, in test [3], the LD50 was 2.64 mg/kg.

Turning to `CCCNS(=O)(=O)N1N=C(OS(C)(=O)=O)CC1(C)C`, the LC50 in test [1] was found to be 55 µg/mL (≈ 175 µM). Besides, in test [2], the IC50 is over 1000 µM. In test [3], this molecule came in with an LD50 of 40.9 mg/kg.

For the molecule `CC(C)NC(=O)N1N=C(OS(C)(=O)=O)CC1C(C)C` (stereo unspecified), the LC50 in test [1] was found to be 5 µg/mL (≈ 17.2 µM). Further, inhibition in test [2] was half-maximal at 602 µM (IC50). Moreover, the LD50 in test [3] turned out to be 25.1 mg/kg.

`C=CCNC(=O)N1N=C(OS(C)(=O)=O)CC1(C)C`: in test [1], the LC50 came to 1.6 µg/mL (≈ 5.81 µM). Further, inhibition in test [2] was half-maximal at 149 µM (IC50). This molecule also displayed an LD50 in test [3] of 6.84 mg/kg.

As to `COP(=O)(OC)C(O)C(Cl)(Cl)Cl` (stereo unspecified) [TRICHLORFON], the IC50 in test [2] was over 1000 µM. In test [3], the LD50 was determined as 21.8 mg/kg.

Consider `CN(C)S(=O)(=O)N1N=C(OS(C)(=O)=O)CC1c1ccccc1` (stereo unspecified), for which the LC50 in test [1] was over 1000 µg/mL. Further, the IC50 in test [2] was over 1000 µM. The same molecule gave an LD50 in test [3] of over 100 mg/kg.

For `CC(C)NS(=O)(=O)N1N=C(OS(C)(=O)=O)CC1(C)C`, the LC50 in test [1] was 60 µg/mL (≈ 191 µM). The molecule further came in with an IC50 in test [2] of 1270 µM. The LD50 in test [3] amounted to 37 mg/kg.

Take `CC1(C)CC(OS(C)(=O)=O)=NN1C(N)=O`: the LC50 in test [1] is over 1000 µg/mL. This molecule displayed an IC50 in test [2] of over 1000 µM. In test [3], this molecule returned an LD50 of over 1000 mg/kg.

Turning to `CC1(C)CC(OS(C)(=O)=O)=NN1S(C)(=O)=O`, in test [1], the LC50 is over 1000 µg/mL. In addition, in test [2], the IC50 is over 1000 µM. The molecule further came in with an LD50 in test [3] of over 1000 mg/kg.

As to `CC(C)C(=O)N1N=C(OS(C)(=O)=O)CC1(C)C`, the LC50 in test [1] amounted to 120 µg/mL (≈ 457 µM). Besides, in test [2], the IC50 is over 1000 µM. Also, in test [3], the LD50 is over 100 mg/kg.

Turning to `CC(C)(C)NC(=O)N1N=C(OS(C)(=O)=O)CC1(C)C`, the LC50 in test [1] came out at 12 µg/mL (≈ 41.2 µM). This molecule displayed an IC50 in test [2] of over 1000 µM. The molecule also had an LD50 in test [3] of 75.9 mg/kg.

Take `CC(C)NC(=O)N1N=C(OS(C)(=O)=O)CC1(C)C`: the LC50 in test [1] was 1 µg/mL (≈ 3.61 µM). In test [2], the IC50 is 714 µM. Besides, in test [3], the LD50 came to 7.14 mg/kg.

With `CCCS(=O)(=O)N1N=C(OS(C)(=O)=O)CC1c1ccccc1` (stereo unspecified), the LC50 in test [1] is over 1000 µg/mL. In addition, it took 62.5 µM to reach half-maximal inhibition in test [2] (IC50). The molecule further came in with an LD50 in test [3] of over 100 mg/kg.

Consider `CC(C)NS(=O)(=O)N1N=C(OS(C)(=O)=O)CC1c1ccccc1` (stereo unspecified), for which the LC50 in test [1] was over 1000 µg/mL. This molecule gave an IC50 in test [2] of over 1000 µM. Also, the LD50 in test [3] is over 100 mg/kg.

For `CC(C)NC(=O)N1N=C(OS(C)(=O)=O)CC1c1ccccc1` (stereo unspecified), the LC50 in test [1] is under 0.5 µg/mL. The molecule also registered an IC50 in test [2] of 40.6 µM. The same molecule returned an LD50 in test [3] of 34.4 mg/kg.

With `CCOC(=O)N1N=C(OS(C)(=O)=O)CC1(C)C`, the LC50 in test [1] was over 1000 µg/mL. Moreover, in test [2], the IC50 was over 1000 µM. This molecule also registered an LD50 in test [3] of over 100 mg/kg.
